Experimental data: patent US20090111798A1, “5,6-DIHYDRO-1H-PYRIDIN-2-ONE COMPOUNDS” (priority 2006, published 2009)

Molecular target: NS5B polymerase (Hepatitis C virus genotype 1b, UniProt P26663)
Test: biochemical
Conditions: NS5B polymerase inhibition; 20 nM enzyme, 75 min at 28° C.
Protocol: Compounds were tested for HCV polymerase inhibition. Assays were performed in a 96-well streptavidin-coated FlashPlate using 20 nM enzyme, 0.5μ Ci of [α-^33P]GTP, 0.6 μM GTP, and 250 nM 5′biotinylated oligo (rG13)/poly rC in 20 mM Tris-HCl, pH 7.5, 5 mM MgCl2, 5 mM dithiothreitol, 0.1 g/L bovine serum albumin, and 100 U/mL RNAse inhibitor. The reaction was stopped by aspiration after 75 min at 28° C. and the plate was washed several times. After washing and drying the plate, incorporated radioactivity was counted using a Microbeta scintillation counter. IC50 values were calculated relative to the uninhibited control and inhibition data were fitted to a 4-parameter IC50 equation.

Chain of NS5B polymerase (P26663 2420-3010): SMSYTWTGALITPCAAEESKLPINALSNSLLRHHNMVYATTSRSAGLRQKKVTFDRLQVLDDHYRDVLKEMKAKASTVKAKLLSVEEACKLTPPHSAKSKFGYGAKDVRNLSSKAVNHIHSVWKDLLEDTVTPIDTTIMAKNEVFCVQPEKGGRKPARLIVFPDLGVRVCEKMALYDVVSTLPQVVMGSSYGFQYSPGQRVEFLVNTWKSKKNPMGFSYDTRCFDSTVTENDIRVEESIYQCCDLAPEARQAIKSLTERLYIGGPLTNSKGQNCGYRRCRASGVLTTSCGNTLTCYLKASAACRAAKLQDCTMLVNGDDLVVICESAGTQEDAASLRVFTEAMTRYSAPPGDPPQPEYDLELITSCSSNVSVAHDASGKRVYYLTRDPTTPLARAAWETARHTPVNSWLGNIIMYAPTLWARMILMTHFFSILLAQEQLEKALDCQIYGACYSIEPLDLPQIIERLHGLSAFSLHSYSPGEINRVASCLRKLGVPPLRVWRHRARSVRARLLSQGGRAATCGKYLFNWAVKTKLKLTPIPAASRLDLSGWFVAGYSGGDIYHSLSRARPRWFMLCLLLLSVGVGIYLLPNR

IC50, < 20 nM:
CS(=O)(=O)Nc1ccc2c(c1)S(=O)(=O)N=C(C1=C(O)[C@@H]3CCC[C@@H]3N(Cc3ccc(Cl)cc3)C1=O)N2 (relative stereo) [Example 56, cis-N-{3-[1-(4-Chloro-benzyl)-4-hydroxy-2-oxo-2,4a,5,6,7,7a-hexahydro-1H-[1]pyrindin-3-yl]-1,1-dioxo-1,4-dihydro-1λ^6-benzo[1,2,4]thiadiazin-7-yl}-methanesulfonamide]
CS(=O)(=O)Nc1ccc2c(c1)S(=O)(=O)C=C(C1=C(O)[C@@H]3CCCCC[C@@H]3N(Cc3ccc(F)cc3)C1=O)N2 (relative stereo) [Example 57, cis-N-{3-[1-(4-Fluoro-benzyl)-4-hydroxy-2-oxo-2,4a,5,6,7,8,9,9a-octahydro-1H-cyclohepta[b]pyridin-3-yl]-1,1-dioxo-1,4-dihydro-1λ^6-benzo[1,4]thiazin-7-yl}-methanesulfonamide]
CS(=O)(=O)Nc1ccc2c(c1)S(=O)(=O)N=C(C1=C(O)[C@@H]3CCC[C@@H]3N(Cc3ccc(F)c(Cl)c3)C1=O)N2 [Example 11, (4aR,7aS)—N-{3-[1-(3-Chloro-4-fluoro-benzyl)-4-hydroxy-2-oxo-2,4-a,5,6,7,7a-hexahydro-1H-[1]pyrindin-3-yl]-1,1-dioxo-1,4-dihydro-1λ^6-benzo[1,2,4]thiadiazin-7-yl}-methanesulfonamide]
CS(=O)(=O)Nc1ccc2c(c1)S(=O)(=O)N=C(C1=C(O)[C@@H]3CCC[C@@H]3N(Cc3ccc(F)cc3)C1=O)N2 [Example 12, (4aR,7aS)—N-{3-[1-(4-Fluoro-benzyl)-4-hydroxy-2-oxo-2,4-a,5,6,7,7a-hexahydro-1H-[1]pyrindin-3-yl]-1,1-dioxo-1,4-dihydro-1λ^6-benzo[1,2,4]thiadiazin-7-yl}-methanesulfonamide]
CS(=O)(=O)Nc1ccc2c(c1)S(=O)(=O)N=C(C1=C(O)C3CCC=CC3N(Cc3ccc(F)cc3)C1=O)N2 (stereo not shown) [Example 16, N-{3-[1-(4-Fluoro-benzyl)-4-hydroxy-2-oxo-1,2,4a,5,6,8a-hexahydro-quinolin-3-yl]-1,1-dioxo-1,4-dihydro-1λ^6-benzo[1,2,4]thiadiazin-7-yl}-methanesulfonamide]
Cc1cc(CN2C(=O)C(C3=NS(=O)(=O)c4cc(NS(C)(=O)=O)ccc4N3)=C(O)[C@@H]3CCC[C@@H]32)ccc1F [Example 22, (4aR,7aS)—N-{3-[1-(4-fluoro-3-methyl-benzyl)-4-hydroxy-2-oxo-2,4-a,5,6,7,7a-hexahydro-1H-[1]pyrindin-3-yl]-1,1-dioxo-1,4-dihydro-1λ^6-benzo[1,2,4]thiadiazin-7-yl}-methanesulfonamide]
Cc1cccc(CN2C(=O)C(C3=NS(=O)(=O)c4cc(NS(C)(=O)=O)ccc4N3)=C(O)[C@@H]3CCC[C@@H]32)c1 [Example 23, (4aR,7aS)—N-{3-[4-Hydroxy-1-(3-methyl-benzyl)-2-oxo-2,4-a,5,6,7,7a-hexahydro-1H-[1]pyrindin-3-yl]-1,1-dioxo-1,4-dihydro-1λ^6-benzo[1,2,4]thiadiazin-7-yl}-methanesulfonamide]
CS(=O)(=O)Nc1ccc2c(c1)S(=O)(=O)N=C(C1=C(O)[C@@H]3CCC[C@@H]3N(Cc3ccc(F)c(F)c3)C1=O)N2 [Example 27, (4aR,7aS)—N-{3-[1-(3,4-Difluoro-benzyl)-4-hydroxy-2-oxo-2,4-a,5,6,7,7a-hexahydro-1H-[1]pyrindin-3-yl]-1,1-dioxo-1,4-dihydro-1λ^6-benzo[1,2,4]thiadiazin-7-yl]-methanesulfonamide]
CC(C)CCN1C(=O)C(C2=NS(=O)(=O)c3cc(NS(C)(=O)=O)ccc3N2)=C(O)[C@@H]2CCC[C@@H]21 [Example 28, (4aR,7aS)—N-{3-[4-Hydroxy-1-(3-methyl-butyl)-2-oxo-2,4-a,5,6,7,7a-hexahydro-1H-[1]pyrindin-3-yl]-1,1-dioxo-1,4-dihydro-1λ^6-benzo[1,2,4]thiadiazin-7-yl]-methanesulfonamide]
CC(C)(C)CCN1C(=O)C(C2=NS(=O)(=O)c3cc(NS(C)(=O)=O)ccc3N2)=C(O)[C@@H]2CCC[C@@H]21 [Example 29, (4aR,7aS)—N-{3-[1-(3,3-Dimethyl-butyl)-4-hydroxy-2-oxo-2,4-a,5,6,7,7a-hexahydro-1H-[1]pyrindin-3-yl]-1,1-dioxo-1,4-dihydro-1λ^6-benzo[1,2,4]thiadiazin-7-yl]-methanesulfonamide]

IC50, 100 to 1000 nM:
CC(C)N1C(=O)C(C2=NS(=O)(=O)c3cc(NS(C)(=O)=O)ccc3N2)=C(O)[C@@H]2CCC[C@@H]21 (relative stereo) [Example 55, cis-N-[3-(4-Hydroxy-1-isopropyl-2-oxo-2,4a,5,6,7,7a-hexahydro-1H-[1]pyrindin-3-yl)-1,1-dioxo-1,4-dihydro-1λ^6-benzo[1,2,4]thiadiazin-7-yl]-methanesulfonamide]
CS(=O)(=O)Nc1ccc2c(c1)S(=O)(=O)N=C(C1=C(O)C3CCCCCCC3N(Cc3ccc(F)cc3)C1=O)N2 (stereo not shown) [Example 3, N-{3-[1-(4-Fluoro-benzyl)-4-hydroxy-2-oxo-1,2,4a,5,6,7,8,9,10,10a-decahydro-cycloocta[b]pyridin-3-yl]-1,1-dioxo-1,4-dihydro-1λ^6-benzo[1,2,4]thiadiazin-7-yl]-methanesulfonamide]
CS(=O)(=O)Nc1ccc2c(c1)S(=O)(=O)N=C(C1=C(O)[C@@H]3CCC[C@@H]3N(Cc3ccc(C(F)(F)F)cc3)C1=O)N2 [Example 14, (4aR,7aS)—N-{3-[4-Hydroxy-2-oxo-1-(4-trifluoromethyl-benzyl)-2,4-a,5,6,7,7a-hexahydro-1H-[1]pyrindin-3-yl]-1,1-dioxo-1,4-dihydro-1λ^6 benzo[1,2,4]thiadiazin-7-yl}-methanesulfonamide]
CS(=O)(=O)Nc1ccc2c(c1)S(=O)(=O)N=C(C1=C(O)[C@@H]3CCC[C@@H]3N(Cc3cccc(C(F)(F)F)c3)C1=O)N2 [Example 15, (4aR,7aS)—N-{3-[4-Hydroxy-2-oxo-1-(3-trifluoromethyl-benzyl)-2,4-a,5,6,7,7a-hexahydro-1H-[1]pyrindin-3-yl]-1,1-dioxo-1,4-dihydro-1λ^6-benzo[1,2,4]thiadiazin-7-yl}-methanesulfonamide]
CS(=O)(=O)Nc1ccc2c(c1)S(=O)(=O)N=C(C1=C(O)[C@@H]3CCC[C@@H]3N(CC3CC3)C1=O)N2 [Example 30, (4aR,7aS)—N-[3-(1-Cyclopropylmethyl-4-hydroxy-2-oxo-2,4-a,5,6,7,7a-hexahydro-1H-[1]pyrindin-3-yl)-1,1-dioxo-1,4-dihydro-1λ^6-benzo[1,2,4]thiadiazin-7-yl]-methanesulfonamide]

IC50, 20 to 100 nM:
CS(=O)(=O)Nc1ccc2c(c1)S(=O)(=O)N=C(C1=C(O)C3CCCCCC3N(Cc3ccc(F)cc3)C1=O)N2 (stereo not shown) [Example 2, N-{3-[1-(4-Fluoro-benzyl)-4-hydroxy-2-oxo-2,4-a,5,6,7,8,9,9a-octahydro-1H-cyclohepta[b]pyridin-3-yl]-1,1-dioxo-1,4-dihydro-1λ^6-benzo[1,2,4]thiadiazin-7-yl}-methanesulfonamide]
CS(=O)(=O)Nc1ccc2c(c1)S(=O)(=O)N=C(C1=C(O)[C@@H]3CCCC[C@@H]3N(Cc3ccc(F)cc3)C1=O)N2 [Example 13, (4aR,8aS)—N-{3-[1-(4-Fluoro-benzyl)-4-hydroxy-2-oxo-1,2,4a,5,6,7,8,8a-octahydro-quinolin-3-yl]-1,1-dioxo-1,4-dihydro-1λ^6-benzo[1,2,4]thiadiazin-7-yl}-methanesulfonamide]
CC(C)CCN1C(=O)C(C2=NS(=O)(=O)c3cc(NS(C)(=O)=O)ccc3N2)=C(O)C2CCCCC21 (stereo not shown) [Example 20, N-{3-[2-(3-Methylbutyl)-5-hydroxy-3-oxo-2-aza-bicyclo[4.4.0]dec-4-en-4-yl]-1,1-dioxo-1,4-dihydro-1λ^6-benzo[1,2,4]thiadiazin-7-yl}-methanesulfonamide]
CC(C)(C)CCN1C(=O)C(C2=NS(=O)(=O)c3cc(NS(C)(=O)=O)ccc3N2)=C(O)C2CCCCC21 (stereo not shown) [Example 21, N-{3-[2-(3,3-Dimethylbutyl)-5-hydroxy-3-oxo-2-aza-bicyclo[4.4.0]dec-4-en-4-yl]-1,1-dioxo-1,4-dihydro-1λ^6-benzo[1,2,4]thiadiazin-7-yl}-methanesulfonamide]
CS(=O)(=O)Nc1ccc2c(c1)S(=O)(=O)N=C(C1=C(O)[C@H]3CCC[C@H]3N(Cc3ccc(F)cc3)C1=O)N2 [Example 26, (4aS,7aR)—N-{3-[1-(4-Fluoro-benzyl)-4-hydroxy-2-oxo-2,4-a,5,6,7,7a-hexahydro-1H-[1]pyrindin-3-yl]-1,1-dioxo-1,4-dihydro-1λ^6-benzo[1,2,4]thiadiazin-7-yl}-methanesulfonamide]
CS(=O)(=O)Nc1ccc2c(c1)S(=O)(=O)N=C(C1=C(O)[C@H]3CCCC[C@H]3N(Cc3ccc(F)cc3)C1=O)N2 [Example 31, (4aS, 8aR)—N-{3-[1-(4-Fluoro-benzyl)-4-hydroxy-2-oxo-1,2,4a,5,6,7,8,8a-octahydro-quinolin-3-yl]-1,1-dioxo-1,4-dihydro-1λ^6 benzo[1,2,4]thiadiazin-7-yl]-methanesulfonamide]
CC(C)(C)CCN1C(=O)C(C2=NS(=O)(=O)c3cc(NS(C)(=O)=O)ccc3N2)=C(O)C2CCCCCC21 (stereo not shown) [Example 32, N-{3-[1-(3,3-Dimethyl-butyl)-4-hydroxy-2-oxo-2,4-a,5,6,7,8,9,9a-octahydro-1H-cyclohepta[b]pyridin-3-yl]-1,1-dioxo-1,4-dihydro-1λ^6-benzo[1,2,4]thiadiazin-7-yl]-methanesulfonamide]
